Laboratory results from paper PMC6531005 (Science Advances, 2019).

Columns and labels:
Assay type in all cases: biochemical
CDC7 kinase = CDC7 kinase (Homo sapiens, UniProt O00311); assay: TR-FRET
CDK2 kinase = CDK2 kinase (Homo sapiens, UniProt P24941); assay: enzymatic kinase inhibition assay, CDK2/cyclin E
CDK9 = CDK9 (Homo sapiens, UniProt P50750); assay: SelectScreen kinase selectivity panel
CDK9, sequence (P50750 whole entry): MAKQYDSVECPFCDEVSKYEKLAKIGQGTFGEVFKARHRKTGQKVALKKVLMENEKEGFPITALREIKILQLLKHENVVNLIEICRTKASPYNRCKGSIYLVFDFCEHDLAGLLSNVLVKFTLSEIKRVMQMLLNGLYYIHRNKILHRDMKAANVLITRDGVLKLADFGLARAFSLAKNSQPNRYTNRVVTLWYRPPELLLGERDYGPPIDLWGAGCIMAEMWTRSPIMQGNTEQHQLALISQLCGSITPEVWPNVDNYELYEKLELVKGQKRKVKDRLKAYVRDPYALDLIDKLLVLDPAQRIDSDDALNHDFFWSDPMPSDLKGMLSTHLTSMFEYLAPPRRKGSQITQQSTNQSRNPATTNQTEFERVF

CDC7 kinase, sequence (O00311 whole entry): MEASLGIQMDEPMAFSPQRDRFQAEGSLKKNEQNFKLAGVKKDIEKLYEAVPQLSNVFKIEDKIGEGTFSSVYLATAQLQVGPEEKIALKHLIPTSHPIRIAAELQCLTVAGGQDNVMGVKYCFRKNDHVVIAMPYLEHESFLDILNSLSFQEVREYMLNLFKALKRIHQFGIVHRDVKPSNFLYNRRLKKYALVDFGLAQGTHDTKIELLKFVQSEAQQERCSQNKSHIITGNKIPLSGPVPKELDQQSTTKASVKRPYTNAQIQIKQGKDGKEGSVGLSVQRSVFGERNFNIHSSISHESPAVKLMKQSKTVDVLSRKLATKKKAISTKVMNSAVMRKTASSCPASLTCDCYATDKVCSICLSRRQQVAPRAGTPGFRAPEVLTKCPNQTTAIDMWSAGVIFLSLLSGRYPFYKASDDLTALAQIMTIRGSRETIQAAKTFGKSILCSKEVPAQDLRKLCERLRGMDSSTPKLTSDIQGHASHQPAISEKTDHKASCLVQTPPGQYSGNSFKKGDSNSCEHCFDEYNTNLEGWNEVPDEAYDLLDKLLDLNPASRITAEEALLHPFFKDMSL
CDC7 kinase, sequence (Q9UBU7 whole entry partner): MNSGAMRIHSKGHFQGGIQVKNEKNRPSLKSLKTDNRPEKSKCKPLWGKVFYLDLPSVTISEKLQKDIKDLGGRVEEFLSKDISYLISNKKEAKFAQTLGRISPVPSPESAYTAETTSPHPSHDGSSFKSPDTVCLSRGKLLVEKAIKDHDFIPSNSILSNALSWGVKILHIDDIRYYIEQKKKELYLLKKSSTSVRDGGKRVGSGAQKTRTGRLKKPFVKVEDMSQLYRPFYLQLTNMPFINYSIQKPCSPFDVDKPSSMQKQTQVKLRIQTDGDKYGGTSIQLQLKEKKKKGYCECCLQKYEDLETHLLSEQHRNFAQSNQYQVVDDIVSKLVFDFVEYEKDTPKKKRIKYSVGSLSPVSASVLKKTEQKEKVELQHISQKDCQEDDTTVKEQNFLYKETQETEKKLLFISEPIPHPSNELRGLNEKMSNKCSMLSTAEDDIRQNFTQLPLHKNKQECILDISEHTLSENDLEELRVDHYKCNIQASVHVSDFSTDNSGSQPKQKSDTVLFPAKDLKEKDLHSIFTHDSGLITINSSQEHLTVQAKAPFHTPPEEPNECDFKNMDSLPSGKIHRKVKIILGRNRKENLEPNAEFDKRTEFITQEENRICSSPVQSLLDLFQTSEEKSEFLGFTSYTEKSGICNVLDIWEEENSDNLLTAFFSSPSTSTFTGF

SMILES: Cc1n[nH]cc1-c1cc2nc([C@@H]3CC4CCN3CC4)[nH]c(=O)c2s1 [TAK-931, 2-[(2S)-1-azabicyclo[2.2.2]oct-2-yl]-6-(3-methyl-1H-pyrazol-4-yl)thieno[3,2-d]pyrimidin-4(3H)-one hemihydrate]
- IC50 (CDC7 kinase): < 0.0003 µM
- IC50 (CDK2 kinase): 6.3 µM
- SelectScreen kinase selectivity panel (fig. S1B) (CDK9): CDK9, which is the second high-affinity target of TAK-931 (fig. S1B)
